Results from patent US20250034182A1, “PHOSPHOLIPID COMPOUNDS AND METHODS OF MAKING AND USING THE SAME” (priority 2021, published 2025).

How the values were obtained:
Assay type in all cases: cell-based
[1] = test system: Respiratory syncytial virus recombinant with luciferase (RSV-Luc5) in HEp-2 cells; assay: HEp-2 RSV-Luc5 384-well assay (EC50 RSVFLUC Hep2-384, Example R); settings: human respiratory syncytial virus, HEp-2, 72 h, read-out: RSV Hep-2 FLuc EC50 (nM) (per Ex. R)
Excerpt: HEp-2 cell line was purchased from ATCC (Manassas, VA Cat #CCL-23) and maintained in Dulbecco's […] (DMEM) (Corning, New York, NY, Cat #15-018CM) supplemented with 10% fetal bovine serum (FBS) (Hyclone, Logan, UT, Cat #SH30071-03) and 1× Penicillin-Streptornycin-L-Glutamine (Corning, New York, NY, Cat #30-009-CI). Cells were passaged 2 times per week to maintain sub-confluent densities and were used for experiments at passage 5-20. Respiratory syncytial virus recombinant with luciferase (RSV-Luc5) direct pelleted virus (≥1×107 TCID50/ml) was purchased from Microbiologics (Saint Cloud, MN). Viral replication was determined in HEp-2 cells in the following manner.
Compounds are prepared in 384-well polypropylene plates (Greiner, Monroe, NC, Cat #784201) with 8 compounds per plate in grouped replicates of 4 at 10 serially diluted concentrations (1:3).
HEp-2 cells were suspended in DMEM (supplemented with 10% FBS and 1×Penicillin-Streptonycin-L-Glutimine) and 60 μL of 4,000 cells per well were seeded into 384-well plates (Greiner, Monroe, NC, Cat #781080) using Biotek MultiFlo dispenser. After overnight incubation at 37° C. and 5% CO2, 0.4 uL of three-fold serial dilutions of compound was added to each well using a Biomek FX pipette station. RSV-Luc5 viruses were diluted in DMEM (supplemented with 10% FBS and 1× Penicillin-Streptonycin-L-Glutainie) at an MOI=0.5. Virus suspension was added to each 384-well compound plate at 20 uL per well using a Biotek MultiFlo dispenser. The assay plates were incubated for 3 days at 37° C. and 5% CO2. At the end of incubation, One-Glo reagent (Promega, Madison, WI, Cat #E6120) was prepared. The assay plate and the reagent were equilibrated to room temperature for 30 minutes. 50 uL per well of medium was removed from assay plate and 40 uL per well of One-Glo reagent was added to each plate by Biomek FX. The plates were sat at room temp for 15 minutes. Viral replication was then assessed by measuring luminescence signal using and Envision plate reader. Remdesivir was used as positive control and DMSO was used as negative control. Values were normalized to the positive and negative controls (as 0% and 100% replication, respectively) and data was fitted using non-linear regression analysis by Gilead's dose response tool. The EC50 value for each compound was then determined as the concentration reducing the viral replication by 50%.

[2] = test system: Respiratory syncytial virus recombinant with luciferase (RSV-Luc5) in NHBE cells; assay: NHBE RSV-Luc5 384-well assay (EC50 RSVFLUC NHBE-384, Example U); settings: human respiratory syncytial virus, 72 h, read-out: RSV FLuc NHBE 384 EC50 (v2) (nM) (per Ex. U)
Outline: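 Passage-2 NHBE cells (5,000/well) on pre-spotted compounds, 10-point 1:3 series, infected with RSV-Luc5 at MOI 1 and incubated 3 days at 37° C. Replication read by One-Glo luminescence, normalized to remdesivir (0%) and DMSO (100%); EC50 = concentration reducing replication by 50%, by non-linear regression.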

[3] = in vitro; settings: human
Method: H1-HeLa cell viability was measured using the CellTiter-Glo® Luminescent Cell Viability Assay kit (Promega, Cat #G7573) according to the manufacturer's protocol. H1-HeLa cells were maintained in Dulbecco's Modified Eagle's Medium with high glucose (Gibco, Cat #: 11995073) supplemented with 10% FBS (HyClone, Cat #: SH303396.03), 100 units/mL penicillin and 100 µg/mL streptomycin (Gibco, Cat #: 15140122). One day before compound treatment, H1-HeLa cells were seeded at […] into 96-well plates (Corning, Cat #3904) in Opti-MEM (Gibco, Cat #: 31985070) supplemented with 2% FBS, and were incubated at 37° C. in a 100% humid atmosphere containing 5% (v/v) CO2. After overnight incubation, the cells were treated with three-fold serial dilutions of the compound. At 96 hours post treatment, CellTiter-Glo reagents were added into each well and luminescence signals were recorded by an EnVision plate reader. The relative cell viability was calculated by normalizing the absorbance of the compound-treated groups to that of the DMSO-treated groups (set as 100% viability) and 10 μM puromycin treated groups (set as 0% viability). The CC50 (compound concentration for reducing 50% of cell viability) was calculated using a nonlinear regression model (four parameters).

[4] = RSV NHBE CC50 384 V2 (per Ex. U); settings: human

Compound	EC50 [1] [nM]	EC50 [2] [nM]	CC50 at 96 h [3] [µM]	CC50 at 3 days [4] [µM]
CCCCCCCCCCCCCCCCCCOC[C@H](COP(=O)(O)OC[C@@]1(C#N)O[C@@H](c2ccc3c(N)ncnn23)[C@H](O)[C@@H]1O)OCc1cc(F)cc(C#N)c1 [Compound 1, ((2R,3S,4R,5S)-5-(4-aminopyrrolo[2,1-f][1,2,4]triazin-7-yl)-2-cyano-3,4-dihydroxytetrahydrofuran-2-yl)methyl ((R)-2-((3-cyano-5-fluorobenzyl)oxy)-3-(octadecyloxy)propyl) hydrogen phosphate]	100	54	3.62	2.4
CCCCCCCCCCCCCCCCCCOC[C@H](COP(=O)(O)OC[C@@]1(C#N)O[C@@H](c2ccc3c(N)ncnn23)[C@H](O)[C@@H]1O)OCc1ccc(C#N)c(Cl)c1 [Compound 7, ((2R,3S,4R,5S)-5-(4-aminopyrrolo[2,1-f][1,2,4]triazin-7-yl)-2-cyano-3,4-dihydroxytetrahydrofuran-2-yl)methyl ((R)-2-((3-chloro-4-cyanobenzyl)oxy)-3-(octadecyloxy)propyl) hydrogen phosphate]	84	36	3.88	5.96
CCCCCCCCCCCCCCCCCCC[C@H](COP(=O)(O)OC[C@@]1(C#N)O[C@@H](c2ccc3c(N)ncnn23)[C@H](O)[C@@H]1O)OCc1cc(F)cc(C#N)c1 [Compound 25, ((2R,3S,4R,5S)-5-(4-aminopyrrolo[2,1-f][1,2,4]triazin-7-yl)-2-cyano-3,4-dihydroxytetrahydrofuran-2-yl)methyl ((R)-2-((3-cyano-5-fluorobenzyl)oxy)henicosyl) hydrogen phosphate]	291	169	8.49	31
CCCCCCCCCCCCCCCCC[C@H](COP(=O)(O)OC[C@@]1(C#N)O[C@@H](c2ccc3c(N)ncnn23)[C@H](O)[C@@H]1O)OCc1cc(F)cc(C#N)c1 [Compound 36, ((2R,3S,4R,5S)-5-(4-aminopyrrolo[2,1-f][1,2,4]triazin-7-yl)-2-cyano-3,4-dihydroxytetrahydrofuran-2-yl)methyl ((R)-2-((3-cyano-5-fluorobenzyl)oxy)nonadecyl) hydrogen phosphate]	155	51	9.56	2.74
CCCCCCCCCCCCCCCCCCOC[C@H](COP(=O)(O)OC[C@@]1(C#N)O[C@@H](c2ccc3c(N)ncnn23)[C@H](O)[C@@H]1O)OCc1cccc(C#N)n1 [Compound 68, ((2R,3S,4R)-5-(4-aminopyrrolo[2,1-f][1,2,4]triazin-7-yl)-2-cyano-3,4-dihydroxytetrahydrofuran-2-yl)methyl ((R)-2-((6-cyanopyridin-2-yl)methoxy)-3-(octadecyloxy)propyl) hydrogen phosphate]	118	9	8.71	2.06
